The subject of assay [1] is CTB-1 (B-Cell Non-Hodgkin's Lymphoma). Briefly: Bliss excess, mean over the matrix (fraction); higher = more synergy. The method in brief:
(§1)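 After 24 hours at 37°C and 5% CO2 in 1536-well plates, cells in DMEM/F12 or RPMI plus 10% FBS received two-drug dose matrices for 72 hours. Viability came from CellTiter-Glo 2.0 luminescence and was scaled as inhibition, anchored at 0 by vehicle wells and at 1 by blank wells. Combination Emax is taken as the second-highest inhibition in the matrix, and Bliss excess as the observed combination effect less EA + EB − EA·EB, with EA and EB the single-agent effects.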

Another assay concerns COLO-829 (Melanoma). The description is as above. The gist of the method: as §1
Assay [2] concerns KARPAS-231 (B-Cell Non-Hodgkin's Lymphoma). The assay is described as above. The gist of the method:
as §1

Assay [3] concerns 8305C (Thyroid Gland Carcinoma). The description is as above. The method in brief: as §1
The subject of assay [4] is LoVo (Colorectal Carcinoma). The assay is described as above. The method in brief:
as §1

In assay [5] the test system is EN (Endometrial Carcinoma). The description is as above. The gist of the method: as §1
Assay [6] concerns RKO (Colorectal Carcinoma). The assay is described as above. The method in brief:
as §1

Assay [7] has as its system HARA (Squamous Cell Lung Carcinoma). The assay is described as above. The method in brief: as §1
The test system of assay [8] is NCI-H69 (Small Cell Lung Carcinoma). The assay is described as above. The method in brief:
as §1

Assay [9] concerns LB771-HNC (Head and Neck Carcinoma). The description is as above. The gist of the method:
as §1

For assay [10], the system named is SU-DHL-6 (B-Cell Non-Hodgkin's Lymphoma). The description is as above. The method in brief: as §1
Assay [11] deals with 639-V (Bladder Carcinoma). The description is as above. The gist of the method:
as §1

In the next assay the test system is Mewo (Melanoma). The assay is described as above. The gist of the method: as §1
The subject of assay [12] is HO-1-u-1 (Oral Cavity Carcinoma). The description is as above. The gist of the method:
as §1

The subject of assay [13] is RT-112 (Bladder Carcinoma). Described as above. The method in brief: as §1
Assay [14] has as its system OVCAR-8 (Ovarian Carcinoma). The description is as above. The method in brief:
as §1

For the next assay, the system named is NCI-H28 (Mesothelioma). In words: combination Emax (second highest fraction inhibited in the dose matrix, 72 h); higher = more inhibition; extreme values may be limits of the assay. The method in brief:
as §1

Assay [15] deals with LoVo (Colorectal Carcinoma). The description is as above. The gist of the method:
as §1

The test system of assay [16] is HARA (Squamous Cell Lung Carcinoma). Described as above. The method in brief: as §1
The subject of assay [17] is OC-314 (Ovarian Carcinoma). Described as above. The method in brief:
as §1

The values below come from the supplement of paper PMC11061612.

SMILES strings stand for the structures.
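Wherever Bliss excess, mean over the matrix is given: after 72 h of two-drug dosing.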

As for `Cc1cc2ncnn2cc1Nc1ncc2c(n1)n(C1CCOCC1)c(=O)n2C` [AZD7648] + C=CCn1c(=O)c2cnc(Nc3ccc(N4CCN(C)CC4)cc3)nc2n1-c1cccc(C(C)(C)O)n1 [AZD1775] (first compound max 10 µM, partner max 1 µM), the Bliss excess in assay [1] was -0.0542; in the assay with COLO-829 (Melanoma), -0.0047; in assay [2], -0.0309; in [3], -0.0825; in assay [4] it was -0.0658; in assay [5] it was -0.0608. Besides, the Bliss excess was -0.032 in assay [6]; -0.0542 in assay [7]; -0.118 in assay [8]; -0.0078 in assay [9]; -0.0816 in assay [10]; 0.049 in assay [11]. The Bliss excess amounted to 0.0455 in the assay on Mewo (Melanoma), 0.0946 in [12], 0.0239 in assay [13] and 0.0102 in [14]. Further, the “combination Emax” value with NCI-H28 (Mesothelioma) came out at 0.42; in assay [15], 0.732; in assay [16], 0.797; in assay [17], 0.567.

Consider `Cc1cc2ncnn2cc1Nc1ncc2c(n1)n(C1CCOCC1)c(=O)n2C` [AZD7648] + CN(C)CCCOc1ccc(-c2ccc3ncc4c(c3c2)n(C2CCOCC2)c(=O)n4C)cn1 [AZD0156] (first compound max 10 µM, 7x7, partner max 1 µM), for which the Bliss excess in assay [1] was -0.0485; in the assay with COLO-829 (Melanoma) it was -0.0203; in assay [2], 0.0157; in assay [3], -0.061; in assay [4], -0.0469; in [5], -0.0396. In addition, the Bliss excess was 0.0317 in assay [6]; 0.0352 in [7]; -0.044 in [8]; 0.0059 in assay [9]; -0.0502 in assay [10]; 0.0192 in assay [11]. The Bliss excess with Mewo (Melanoma) was 0.0033; in assay [12], -0.0542; in [13], 0.0229; in assay [14], 0.0245. The “combination Emax” value in the assay with NCI-H28 (Mesothelioma) is 0.307; in [15], 0.483; in assay [16], 0.283; in assay [17], 0.348.

Regarding `C=CCn1c(=O)c2cnc(Nc3ccc(N4CCN(C)CC4)cc3)nc2n1-c1cccc(C(C)(C)O)n1` [AZD1775] + O=C(c1cc(Cc2n[nH]c(=O)c3ccccc23)ccc1F)N1CCN(C(=O)C2CC2)CC1 [Olaparib] (first compound max 1 µM, partner max 10 µM), the Bliss excess is -0.0921 in [1]; -0.0137 in the assay on COLO-829 (Melanoma); -0.0554 in [2]; -0.0762 in [3]; -0.0313 in assay [4]; -0.0469 in assay [5]. In addition, the Bliss excess in assay [6] is -0.0119; in assay [7], -0.0325; in [8], -0.0166; in assay [9], -0.0622; in [10] it was -0.0222; in [11] it was 0.0085. Further, the Bliss excess was -0.0237 in the assay with Mewo (Melanoma), -0.0521 in [12], 0.0461 in assay [13] and -0.0303 in assay [14]. In addition, the “combination Emax” value with NCI-H28 (Mesothelioma) was 0.421; in assay [15], 0.781; in assay [16], 0.743; in assay [17], 0.631.
